Reference: patent publication US10130619B2, “Amido thiadiazole derivatives as NADPH oxidase inhibitors” (GENKYOTEX SUISSE SA, priority 2014, dated 2018)

The compounds below were run against hNOX1 (Homo sapiens (Human), UniProt Q9Y5S8) (assay: ROS production measurement on hNOX1 membranes (Amplex Red fluorescence assay, assay 1)). Conditions: assay 1: membranes from CHO cells overexpressing hNox1, Amplex Red/HRP fluorescence, NADPH 30 μM; non linear regression (GraphPad Prism); read-out: Nox1 inhibitory constant Ki.
Chain of hNOX1 (Q9Y5S8 whole entry): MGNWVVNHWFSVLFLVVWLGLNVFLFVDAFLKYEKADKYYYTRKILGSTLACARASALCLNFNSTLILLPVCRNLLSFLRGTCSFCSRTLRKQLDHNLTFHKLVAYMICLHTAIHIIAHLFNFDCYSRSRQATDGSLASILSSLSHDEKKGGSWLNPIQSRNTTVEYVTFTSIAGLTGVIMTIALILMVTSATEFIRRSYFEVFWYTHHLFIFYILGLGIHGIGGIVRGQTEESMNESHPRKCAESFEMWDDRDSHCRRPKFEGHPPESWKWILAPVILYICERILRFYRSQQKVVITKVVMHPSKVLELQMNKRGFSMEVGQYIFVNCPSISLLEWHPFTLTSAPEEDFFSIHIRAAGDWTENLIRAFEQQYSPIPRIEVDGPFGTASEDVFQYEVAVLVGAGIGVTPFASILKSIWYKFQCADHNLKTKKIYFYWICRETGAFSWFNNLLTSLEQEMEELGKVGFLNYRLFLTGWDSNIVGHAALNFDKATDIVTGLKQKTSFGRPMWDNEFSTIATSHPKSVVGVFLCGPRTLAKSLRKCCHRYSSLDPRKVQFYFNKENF
Chain of hNOX1 (P13498 whole entry partner): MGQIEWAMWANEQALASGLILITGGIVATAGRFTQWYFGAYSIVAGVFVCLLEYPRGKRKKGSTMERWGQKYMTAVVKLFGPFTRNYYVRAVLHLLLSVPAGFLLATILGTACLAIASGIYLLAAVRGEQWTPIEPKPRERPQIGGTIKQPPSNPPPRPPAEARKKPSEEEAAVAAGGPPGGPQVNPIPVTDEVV
Assay type: biochemical
Experimental: Reactive oxygen species (ROS) production generated by hNOX1 enzyme was measured by fluorescence in both cellular and membrane-based assays using the Amplex® Red reagent. In the presence of horseradish peroxidase (HRP), the Amplex® Red reagent (10-acetyl-3,7-dihydroxyphenoxazine, AR), which is a colorless and nonfluorescent derivative of dihydroresorufin, reacts with H2O2 with a 1:1 stoichiometry to produce highly fluorescent resorufin at an excitation and emission wavelengths of 544 nm and 590 nm, respectively.
After resuspension in sonication buffer (11% sucrose, 120 mM NaCl, 1 mM EGTA in PBS, pH 7.4), cells were broken by sonication and centrifuged (200 g, 10 min). The supernatant was layered onto a 17/40% (w/v) discontinuous sucrose gradient and centrifuged (150,000 g for 30 min). Membrane fractions were collected from the 17/40% interface, aliquoted in 10 μl samples and were stored at −80° C. Protein concentration was determined with Bradford reagent. Flavin Adenine Dinucleotide (FAD) (catalog # F6625-500MG), MgCl2 (catalog # M8266-100G), Phosphatidic Acid (PA) (catalog # P3591-50MG) were purchased from Sigma-Aldrich. […] NADPH (catalog #A1395, 0500) was purchased from Applichem. Amplex red (AR) (catalog # A22177) was purchased from Invitrogen. […] FLUOstar OPTIMA microplate reader was supplied by BMG Labtech (Germany). Zephyr® Compact Liquid Handling Workstation was supplied by PerkinElmer (Germany).
Assay 1: ROS Production Measurement on hNOX1 Membranes
All solutions were placed on ice and protected from light.
The NADPH was dissolved in water at a concentration of 12 mM and was transferred in a metal transfer plate kept at 4° C. The NADPH was added to the assay plate to initiate the reaction just before the measurement.
Serial dilution (1:3, 10 serial dilution) of the compounds was performed in 100% DMSO in 96 well polypropylene plate—Row B-H […], Row A, Column 1-10 contained reference compound. Starting concentration was 10^−2 M (10 mM). Final concentration in assay was 10^−4 M (100 μM). Compounds were diluted twice in PBS buffer by transferring 30 μl/well of PBS into 30 μl/well compounds sample in DMSO using Zephyr® Compact Liquid Handling Workstation. Control wells-columns 1 and 12-contained 60 μl DMSO in 50% PBS pH7.
Reaction mixture is dispensed using Zephyr® Compact Liquid Handling Workstation. 90 μl of mix with membrane were dispensed into 96 well black plates—Column 2-11, Column 1 Row A-D, Column 12 Row E-H. 90 μl of control mix were dispensed into assay plate—Column 1 Row E-H, Column 12 Row A-D, which are wells for measuring background signal. 2 μl of compounds were dispensed into each well of assay plate using Zephyr® Compact Liquid Handling Workstation. The reaction mixture with compounds was incubated in assay plates for 20 min at 37° C. in a Titramax microplate incubator with gentle agitation. 10 μl of NADPH is dispensed to the assay plate. Fluorescence reading was recorded with the FLUOstar OPTIMA microplate reader for 10 min at 37° C. (8 cycles, 1 cycle duration 55 sec).

| Compound | Ki [nM] |
| --- | --- |
| CCC(Oc1ccc(C(=O)Nc2nnc(-c3ccncc3)s2)cn1)c1ccccc1 (stereo not shown) [(134)] | 71 |
| C[C@H](Nc1ccc(C(=O)Nc2nnc(-c3ccncc3)s2)cn1)c1ccccc1 [(149)] | 78 |
| COc1cc(C(=O)Nc2nnc(-c3ccncn3)s2)ccc1O[C@@H](C)c1ccccc1 [(157)] | 110 |
| COc1cc(C(=O)Nc2nnc(-c3ccncc3)s2)ccc1OCCc1ccccc1 [(161)] | 79 |
| COc1cc(C(=O)Nc2nnc(-c3ccncc3)s2)ccc1OCc1ccn(C)n1 [(162)] | 95 |
| O=C(Nc1nnc(-c2ccncc2)s1)c1ccc(OCc2ccccc2)cc1F [(168)] | 100 |
| CN(C)C(=O)[C@H](Cc1ccccc1)Oc1ccc(C(=O)Nc2nnc(-c3ccncc3)s2)cn1 [(174)] | 96 |
| C[C@H](COc1ccc(C(=O)Nc2nnc(-c3ccncc3)s2)cn1)c1ccccc1 [(178)] | 85 |
| COCC(Oc1ccc(C(=O)Nc2nnc(-c3ccncc3)s2)cc1OC)c1ccccc1 (stereo not shown) [(183)] | 55 |
| COc1cc(C(=O)Nc2nnc(-c3ccncc3)s2)ccc1O[C@H](CN1CCOCC1)c1ccccc1 [(185)] | 89 |
| O=C(Nc1nnc(-c2ccncc2)s1)c1ccc(O[C@@H](CN2CCC(F)(F)C2)c2ccccc2)nc1 [(187)] | 55 |
| COc1cc(C(=O)Nc2nnc(-c3ccncc3)s2)ccc1O[C@H](CN(C)C)c1ccc(F)cc1 [(200)] | 110 |
| COc1cc(C(=O)Nc2nnc(-c3ccncc3)s2)ccc1OCc1nccn1C [Example 19, 3-methoxy-4-((1-methyl-1H-imidazol-2-yl)methoxy)-N-(5-(pyridin-4-yl)-1,3,4-thiadiazol-2-yl)benzamide] | 220 |

Now those with a lower Ki, led by results:

| Ki [nM] | Compound |
| --- | --- |
| 49 | COc1cc(C(=O)Nc2nnc(-c3ccncc3)s2)ccc1O[C@@H](CN1CCCC1)c1ccccc1 [Example 10, (R)-3-methoxy-4-(1-phenyl-2-(pyrrolidin-1-yl)ethoxy)-N-(5-(pyridin-4-yl)-1,3,4-thiadiazol-2-yl)benzamide] |
| 47 | O=C(Nc1nnc(-c2ccncc2)s1)c1ccc(OC2CCc3ccccc32)nc1 (stereo not shown) [(136)] |
| 47 | COc1cc(C(=O)Nc2nnc(-c3ccncc3)s2)ccc1O[C@H](CO)c1ccc(F)cc1 [(199)] |
| 38 | COc1cc(C(=O)Nc2nnc(-c3ccncc3)s2)ccc1OC1COc2ccccc21 (stereo not shown) [(152)] |
| 37 | Cc1cc(C(=O)Nc2nnc(-c3ccncc3)s2)cnc1O[C@@H](CN1CCOCC1)c1ccccc1 [(182)] |
| 35 | COc1cc(C(=O)Nc2nnc(-c3ccncc3)s2)ccc1Cn1ccc2ccccc21 [(121)] |
| 33 | COc1cc(C(=O)Nc2nnc(-c3ccncc3)s2)ccc1OC(c1ccccc1)C1CC1 (stereo not shown) [(154)] |
| 32 | COc1ccc(CCCOc2ccc(C(=O)Nc3nnc(-c4ccncc4)s3)cn2)cc1 [(180)] |
| 29 | COc1cc(C(=O)Nc2nnc(-c3ccncc3)s2)ccc1O[C@@H](CCN1CCCC1)c1ccccc1 [Example 9, (S)-3-methoxy-4-(1-phenyl-3-(pyrrolidin-1-yl)propoxy)-N-(5-(pyridin-4-yl)-1,3,4-thiadiazol-2-yl)benzamide] |
| 25 | COc1cc(C(=O)Nc2nnc(-c3ccncc3)s2)ccc1O[C@@H](CN(C)C)c1ccc(F)cc1 [(198)] |
| 24 | COc1cc(C(=O)Nc2nnc(-c3ccncc3)s2)ccc1O[C@@H](CO)c1ccc(F)cc1 [(197)] |
| 22 | COc1cc(C(=O)Nc2nnc(-c3ccncc3)s2)ccc1OC1Cc2ccccc2C1 [(158)] |
| 22 | COc1cc(C(=O)Nc2nnc(-c3ccncc3)s2)ccc1O[C@@H](CO)c1ccccc1 [Example 7, (R)-4-(2-hydroxy-1-phenylethoxy)-3-methoxy-N-(5-(pyridin-4-yl)-1,3,4-thiadiazol-2-yl)benzamide] |
| 18 | CC(Oc1ccc(C(=O)Nc2nnc(-c3ccncc3)s2)cc1OCC1CCNCC1)c1ccccc1 (stereo not shown) [Example 1, 4-(1-phenylethoxy)-3-(piperidin-4-ylmethoxy)-N-(5-(pyridin-4-yl)-1,3,4-thiadiazol-2-yl)benzamide] |
| 15 | COc1cc(C(=O)Nc2nnc(-c3ccncc3)s2)ccc1OC1CCc2ncccc21 (stereo not shown) [(151)] |
